The source of these data is DBAASP.

Among the test systems are Staphylococcus aureus; Escherichia coli; Pseudomonas aeruginosa.
Common to all, as to assay: ≥ marks a high value that may be exact or a test limit, other limits are often not marked, values filed in µg/mL are converted to µM
Assay [1] has as its system Staphylococcus aureus ATCC 29213.
For assay [2], the system named is Pseudomonas aeruginosa ATCC 27853.
For assay [3], the system named is Staphylococcus epidermidis ATCC 12228.
The test system of assay [4] is Escherichia coli ATCC 25922.
Assay [5] has as its system Staphylococcus aureus ATCC 25923.

≈ marks a conversion by molar mass, not a printed value. Where “and” joins values, the source holds several entries; their conditions need not be identical. Equal entries are not always repeated.

On to `CC[C@H](C)[C@H](N)C(=O)N[C@@H](Cc1c[nH]c2ccccc12)C(=O)N[C@@H](CCCN=C(N)N)C(=O)N[C@H](C(=O)N[C@@H](Cc1ccccc1)C(=O)N[C@@H](CCCN=C(N)N)C(=O)N[C@@H](CCCN=C(N)N)C(=O)N[C@H](C(=O)N[C@@H](Cc1ccccc1)C(=O)N[C@@H](CCCN=C(N)N)C(=O)N[C@H](C(=O)N[C@@H](Cc1ccccc1)C(N)=O)[C@@H](C)CC)[C@@H](C)CC)[C@@H](C)CC` [IWRIFRRIFRIF], for which the MIC in assay [1] was 1 µM (≈ 1.72 µg/mL); in assay [2], 4 µM (≈ 6.89 µg/mL); in assay [3] it was 2 µM (≈ 3.44 µg/mL); in assay [4], 4 µM and 8 µM.
With `CC[C@H](C)[C@H](NC(=O)[C@H](CCCCN)NC(=O)[C@H](CCCCN)NC(=O)[C@@H](N)CCC(N)=O)C(=O)N[C@@H](CCCN=C(N)N)C(=O)N[C@H](C(=O)N[C@@H](C)C(=O)N[C@@H](CC(C)C)C(=O)N[C@@H](CO)C(=O)N[C@@H](C)C(=O)O)C(C)C` [QKKIRVALSA], the MIC in assay [1] is over 57.5 µM; in assay [2], 14.4 µM (≈ 16 µg/mL); in assay [4], 14.4 µM (≈ 16 µg/mL).
As for `CC(C)C[C@H](NC(=O)[C@H](CCCCN)NC(=O)[C@H](CC(C)C)NC(=O)[C@H](CC(C)C)NC(=O)[C@H](CCCCN)NC(=O)[C@H](CCCCN)NC(=O)[C@H](Cc1cnc[nH]1)NC(=O)[C@H](CC(C)C)NC(=O)[C@H](CCCCN)NC(=O)[C@H](CC(C)C)NC(=O)[C@H](CC(C)C)NC(=O)[C@H](CCCCN)NC(=O)[C@H](CCCCN)NC(=O)[C@@H](N)CC(C)C)C(=O)N[C@@H](C)C(=O)NCC(=O)O` [LKKLLKLHKKLLKLAG], the MIC in assay [1] was over 40 µM; in assay [4], 2.5 µM (≈ 4.61 µg/mL).
`CC[C@H](C)[C@H](NC(=O)CNC(=O)[C@H](CC(C)C)NC(=O)[C@@H](NC(=O)[C@@H](N)Cc1ccc(O)cc1)[C@@H](C)O)C(=O)N[C@@H](CCCCN)C(=O)N[C@H](C(=O)N[C@@H](CC(C)C)C(=O)N[C@@H](Cc1c[nH]c2ccccc12)C(=O)N[C@@H](CO)C(=O)N[C@@H](C)C(=O)N[C@@H](Cc1ccc(O)cc1)C(=O)N[C@@H](CCCCN)C(=O)N[C@@H](Cc1cnc[nH]1)C(=O)N[C@@H](CCCN=C(N)N)C(=O)N[C@@H](CCCCN)C(=O)N[C@H](C(=O)N[C@H](C(=O)N[C@@H](CCC(=O)O)C(=O)N[C@@H](CCCCN)C(=O)N[C@@H](CO)C(=O)N[C@@H](Cc1ccccc1)C(=O)N[C@@H](CC(N)=O)C(=O)N[C@@H](CCCCN)C(=O)NCC(=O)N[C@@H](Cc1ccccc1)C(=O)N[C@@H](Cc1ccc(O)cc1)C(=O)N[C@@H](Cc1cnc[nH]1)C(=O)O)[C@@H](C)CC)[C@@H](C)O)[C@@H](C)CC` [YTLGIKILWSAYKHRKTIEKSFNKGFYH] yielded an MIC in assay [3] of 50 µM (≈ 172 µg/mL).
On to `CC[C@H](C)[C@H](NC(=O)[C@H](CCCCN)NC(=O)[C@H](CC(C)C)NC(=O)[C@H](C)NC(=O)[C@H](C)NC(=O)[C@H](CCCCN)NC(=O)[C@H](CC(C)C)NC(=O)[C@H](C)NC(=O)[C@H](CCCCN)NC(=O)CNC(=O)[C@H](CC(C)C)NC(=O)[C@H](Cc1ccccc1)NC(=O)[C@H](CO)NC(=O)CNC(=O)[C@H](Cc1ccccc1)NC(=O)CN)C(=O)NCC(=O)N[C@@H](C)C(=O)N[C@@H](CC(N)=O)C(=O)N[C@H](C(=O)N[C@@H](CC(C)C)C(=O)NCC(=O)NCC(=O)N[C@@H](C)C(=O)N1CCC[C@H]1C(=O)N[C@@H](CCC(=O)O)C(=O)N[C@@H](CCC(N)=O)C(=O)O)C(C)C` [GFGSFLGKALKAALKIGANVLGGAPEQ], for which the results for the MIC in the assay with Staphylococcus aureus and against Escherichia coli were 6 µM (≈ 15.7 µg/mL) and 25 µM (≈ 65.4 µg/mL), respectively.
For the molecule `CC[C@H](C)[C@H](N)C(=O)N[C@H](C(=O)N[C@@H](CO)C(=O)N[C@H](C(=O)N[C@H](C(=O)NCC(=O)N[C@@H](CCCCN)C(=O)N[C@@H](CC(C)C)C(=O)N[C@H](C(=O)N[C@@H](CCCCN)C(=O)N[C@@H](Cc1c[nH]c2ccccc12)C(=O)N[C@H](C(=O)N[C@H](C(=O)N[C@@H](CCCCN)C(=O)N[C@H](C(=O)N[C@H](C(=O)N[C@@H](CC(N)=O)C(=O)N[C@@H](CCCCN)C(=O)N[C@@H](Cc1ccccc1)C(=O)N[C@H](C(=O)N[C@@H](CCCCN)C(=O)N[C@@H](CCCCN)C(=O)O)[C@@H](C)O)C(C)C)[C@@H](C)O)[C@@H](C)CC)[C@@H](C)CC)C(C)C)[C@@H](C)CC)[C@@H](C)O)[C@@H](C)CC` [IISTIGKLVKWIIKTVNKFTKK], the MIC against Staphylococcus aureus came to 4.7 µM (≈ 12 µg/mL); against Escherichia coli it was 2.7 µM (≈ 6.91 µg/mL).
Regarding `CC[C@H](C)[C@H](N)C(=O)N[C@@H](Cc1c[nH]c2ccccc12)C(=O)N[C@@H](CCCN=C(N)N)C(=O)N[C@H](C(=O)N[C@@H](Cc1ccccc1)C(=O)N[C@@H](CCCN=C(N)N)C(N)=O)[C@@H](C)CC` [IWRIFR], the MIC in assay [1] amounted to 128 µM (≈ 114 µg/mL); in assay [2], 128 µM (≈ 114 µg/mL); in assay [3] it was 64 µM (≈ 56.9 µg/mL); in assay [4] it was 128 µM (≈ 114 µg/mL).
For `CC[C@H](C)[C@H](NC(=O)CN)C(=O)NCC(=O)N[C@@H](C)C(=O)N[C@H](C(=O)N[C@@H](CC(C)C)C(=O)N[C@@H](CCCCN)C(=O)N[C@H](C(=O)N[C@@H](CC(C)C)C(=O)N[C@H](C(=O)N[C@H](C(=O)NCC(=O)N[C@@H](CC(C)C)C(=O)N1CCC[C@H]1C(=O)N[C@@H](C)C(=O)N[C@@H](CC(C)C)C(=O)N[C@H](C(=O)N[C@@H](CCCCN)C(=O)N[C@@H](CCCN=C(N)N)C(=O)N[C@@H](CCCCN)C(=O)N[C@@H](CCCN=C(N)N)C(=O)N[C@@H](CCC(N)=O)C(=O)N[C@@H](CCC(N)=O)C(=O)O)[C@@H](C)CC)[C@@H](C)O)[C@@H](C)O)C(C)C)C(C)C` [GIGAVLKVLTTGLPALIKRKRQQ], the MIC worked out at 1.44 µM (≈ 3.54 µg/mL) with Pseudomonas aeruginosa; 2.03 µM (≈ 5 µg/mL) in assay [2]; 0.0508 µM (≈ 0.125 µg/mL) in assay [5]; 0.359 µM (≈ 0.884 µg/mL) with Escherichia coli; 1.02 µM (≈ 2.5 µg/mL) in assay [4].
Consider `CC(=O)N[C@@H](CCCCN)C(=O)N[C@@H](CC(C)C)C(=O)N[C@@H](CC(C)C)C(=O)N[C@@H](CCCCN)C(=O)N[C@@H](CC(C)C)C(=O)N1CCC[C@H]1C(=O)N[C@@H](CCCCN)C(=O)N[C@@H](CCCCN)C(=O)N[C@@H](CC(C)C)C(=O)N[C@@H](CC(C)C)C(=O)N[C@@H](CCCCN)C(=O)N[C@@H](CC(C)C)C(=O)N[C@@H](CC(C)C)C(=O)N[C@@H](CCCCN)C(N)=O` [KLLKLPKKLLKLLK], for which the MIC in assay [1] and in assay [4] was over 80 µM throughout.
In the case of `CC[C@H](C)[C@H](NC(=O)[C@H](CCCN=C(N)N)NC(=O)[C@H](CCC(N)=O)NC(=O)[C@H](CO)NC(=O)[C@@H](NC(=O)[C@H](CCCN=C(N)N)NC(=O)[C@H](CCCCN)NC(=O)[C@@H](N)Cc1ccccc1)[C@@H](C)CC)C(=O)N[C@@H](CCCCN)C(=O)N[C@@H](CC(=O)O)C(=O)N[C@@H](Cc1ccccc1)C(=O)N[C@@H](CC(C)C)C(=O)N[C@@H](CCCN=C(N)N)C(=O)O` [FKRISQRIKDFLR], the values for the MIC in assay [1] and in assay [4] were over 40 µM and 5 µM (≈ 8.54 µg/mL), respectively.
In the case of `CC[C@H](C)[C@H](NC(=O)CN)C(=O)NCC(=O)N[C@@H](CO)C(=O)N[C@@H](C)C(=O)N[C@@H](CC(C)C)C(=O)N[C@@H](C)C(=O)N[C@@H](CCCCN)C(=O)N[C@@H](C)C(=O)N[C@@H](C)C(=O)N[C@@H](CCCCN)C(=O)N[C@@H](CC(C)C)C(=O)N[C@H](C(=O)N[C@@H](C)C(=O)NCC(=O)N[C@H](C(=O)N[C@H](C(N)=O)C(C)C)[C@@H](C)CC)C(C)C` [GIGSALAKAAKLVAGIV], the MIC was 12.5 µM (≈ 19.2 µg/mL) against Staphylococcus aureus and 50 µM (≈ 76.9 µg/mL) against Escherichia coli.
